# Data from paper PMC12203311, “Design, synthesis, in silico and in vitro evaluation of pyrrole–indole hybrids as dual tubulin and aromatase inhibitors with potent anticancer activities” (RSC Advances, 2025).
# What was measured:
# Experiment in all cases: NCI60 five-dose screen
# MCF7 = format: cell-based; conditions: Homo sapiens, MCF7, breast cancer; for CC50: read-out: LC50 (the source's name)
# MDA-MB-468 = format: cell-based; conditions: Homo sapiens, MDA-MB-468, breast cancer; for CC50: read-out: LC50 (the source's name)
# UACC-62 = format: cell-based; conditions: Homo sapiens, UACC-62, melanoma; for CC50: read-out: LC50 (the source's name)
# RPMI-8226 = format: cell-based; conditions: Homo sapiens, RPMI-8226, leukemia; for CC50: read-out: LC50 (the source's name)
# T-47D = format: cell-based; conditions: Homo sapiens, T47D, breast cancer; for CC50: read-out: LC50 (the source's name)
# HCC-2998 = format: cell-based; conditions: Homo sapiens, HCC-2998, colon cancer; for CC50: read-out: LC50 (the source's name)
# MOLT-4 = format: cell-based; conditions: Homo sapiens, MOLT-4, leukemia; for CC50: read-out: LC50 (the source's name)
# SNB-19 = format: cell-based; conditions: Homo sapiens, SNB-19, CNS cancer; for CC50: read-out: LC50 (the source's name)
# SF-539 = format: cell-based; conditions: Homo sapiens, SF-539, CNS cancer; for CC50: read-out: LC50 (the source's name)
# NCI-H226 = format: cell-based; conditions: Homo sapiens, NCI-H226, NSC lung cancer; for CC50: read-out: LC50 (the source's name)
# A549/ATCC = format: cell-based; conditions: Homo sapiens, NSC lung cancer; for CC50: read-out: LC50 (the source's name)
# SF-295 = format: cell-based; conditions: Homo sapiens, SF-295, CNS cancer; for CC50: read-out: LC50 (the source's name)
# HCT-116 = format: cell-based; conditions: Homo sapiens, HCT-116, colon cancer; for CC50: read-out: LC50 (the source's name)
# SK-OV-3 = format: cell-based; conditions: Homo sapiens, SK-OV-3, ovarian cancer; for CC50: read-out: LC50 (the source's name)
# BT-549 = format: cell-based; conditions: Homo sapiens, BT-549, breast cancer; for CC50: read-out: LC50 (the source's name)
# SF-268 = format: cell-based; conditions: Homo sapiens, SF-268, CNS cancer; for CC50: read-out: LC50 (the source's name)
# SNB-75 = format: cell-based; conditions: Homo sapiens, SNB-75, CNS cancer; for CC50: read-out: LC50 (the source's name)
# SK-MEL-5 = format: cell-based, human; conditions: Homo sapiens; for CC50: SK-MEL-5, SK-MEL-5, melanoma, read-out: LC50 (the source's name); for GI50: SK-MEL-5, melanoma
# HCT-15 = format: cell-based; conditions: Homo sapiens, HCT-15, colon cancer; for CC50: read-out: LC50 (the source's name)
# SN12C = format: cell-based; conditions: Homo sapiens, renal cancer; for CC50: read-out: LC50 (the source's name)
# EKVX = format: cell-based; conditions: Homo sapiens, NSC lung cancer; for CC50: read-out: LC50 (the source's name)
# LOX IMVI = format: cell-based; conditions: Homo sapiens, melanoma; for CC50: read-out: LC50 (the source's name)
# ACHN = format: cell-based; conditions: Homo sapiens, renal cancer; for CC50: read-out: LC50 (the source's name)
# OVCAR-8 = format: cell-based; conditions: Homo sapiens, OVCAR-8, ovarian cancer; for CC50: read-out: LC50 (the source's name)
# MDA-MB-231/ATCC = format: cell-based; conditions: Homo sapiens, breast cancer; for CC50: read-out: LC50 (the source's name)
# SK-MEL-2 = format: cell-based; conditions: Homo sapiens, SK-MEL-2, melanoma; for CC50: read-out: LC50 (the source's name)
# NCI/ADR-RES = format: cell-based, human; conditions: Homo sapiens, ovarian cancer; for CC50: read-out: LC50 (the source's name)
# PC-3 = format: cell-based; conditions: Homo sapiens, PC-3, prostate cancer; for CC50: read-out: LC50 (the source's name)
# IGROV1 = format: cell-based; conditions: Homo sapiens, IGROV-1; IGROV1, ovarian cancer
# K-562 = format: cell-based; conditions: Homo sapiens, K562, K-562, leukemia; for CC50: read-out: LC50 (the source's name)
# OVCAR-3 = format: cell-based; conditions: Homo sapiens, OVCAR-3, ovarian cancer; for CC50: read-out: LC50 (the source's name)
# HT29 = format: cell-based; conditions: Homo sapiens, HT-29, HT29, colon cancer; for CC50: read-out: LC50 (the source's name)
compound,measurement,setting,value
"Cc1[nH]c(/C=N/NC(=O)c2[nH]c3ccc(Br)cc3c2-c2ccccc2)c(C)c1[N+](=O)[O-] [Derivative 3r, (E)-5-Bromo-N′-((3,5-dimethyl-4-nitro-1H-pyrrol-2-yl)methylene)-3-phenyl-1H-indole-2-carbohydrazide]",GI50,MCF7,2.57 µM
same,CC50,MCF7,29.9 µM
same,GI50,MDA-MB-468,1.94 µM
same,CC50,MDA-MB-468,26.1 µM
same,GI50,UACC-62,2.9 µM
same,CC50,UACC-62,37.5 µM
same,GI50,RPMI-8226,2.7 µM
same,CC50,RPMI-8226,> 100 µM
same,GI50,T-47D,2.51 µM
same,CC50,T-47D,33.5 µM
same,GI50,HCC-2998,2.41 µM
same,CC50,HCC-2998,25.4 µM
same,GI50,MOLT-4,2.29 µM
same,CC50,MOLT-4,> 100 µM
same,GI50,SNB-19,3.45 µM
same,CC50,SNB-19,43.1 µM
same,GI50,SF-539,3.51 µM
same,CC50,SF-539,35.7 µM
same,GI50,NCI-H226,3.78 µM
same,CC50,NCI-H226,40.6 µM
same,GI50,A549/ATCC,3.19 µM
same,CC50,A549/ATCC,35.6 µM
same,GI50,SF-295,2.32 µM
same,CC50,SF-295,21.2 µM
same,GI50,HCT-116,1.98 µM
same,CC50,HCT-116,10.4 µM
same,GI50,SK-OV-3,3.23 µM
same,CC50,SK-OV-3,39.2 µM
same,GI50,BT-549,2.74 µM
same,CC50,BT-549,30.6 µM
same,GI50,SF-268,2.37 µM
same,CC50,SF-268,33.1 µM
same,GI50,SNB-75,2.19 µM
same,CC50,SNB-75,21.5 µM
same,CC50,SK-MEL-5,5.87 µM
same,GI50,SK-MEL-5,1.5 µM
same,GI50,HCT-15,2.41 µM
same,CC50,HCT-15,26.4 µM
same,GI50,SN12C,1.74 µM
same,CC50,SN12C,6.73 µM
same,GI50,EKVX,3.34 µM
same,CC50,EKVX,34.9 µM
same,GI50,LOX IMVI,1.63 µM
same,CC50,LOX IMVI,5.73 µM
same,GI50,ACHN,3.3 µM
same,CC50,ACHN,33.4 µM
same,GI50,OVCAR-8,3.08 µM
same,CC50,OVCAR-8,36.5 µM
same,GI50,MDA-MB-231/ATCC,3.56 µM
same,CC50,MDA-MB-231/ATCC,40.5 µM
same,GI50,SK-MEL-2,2.11 µM
same,CC50,SK-MEL-2,22.6 µM
same,GI50,NCI/ADR-RES,1.89 µM
same,CC50,NCI/ADR-RES,9.15 µM
same,GI50,PC-3,2.85 µM
same,CC50,PC-3,45.5 µM
same,GI50,IGROV1,3.83 µM
same,GI50,K-562,2.69 µM
same,CC50,K-562,> 100 µM
same,GI50,OVCAR-3,1.77 µM
same,CC50,OVCAR-3,10.4 µM
same,GI50,HT29,1.84 µM
same,CC50,HT29,6.67 µM
"CCOC(=O)c1c[nH]c(/C=N/NC(=O)c2[nH]c3ccc(Br)cc3c2-c2ccccc2)c1 [Derivative 3j, Ethyl (E)-5-((2-(5-bromo-3-phenyl-1H-indole-2-carbonyl)hydrazono)methyl)-1H-pyrrole-3-carboxylate]",GI50,MCF7,2.76 µM
same,CC50,MCF7,50.2 µM
same,GI50,MDA-MB-468,2.47 µM
same,CC50,MDA-MB-468,24.2 µM
same,GI50,UACC-62,2.92 µM
same,CC50,UACC-62,42.6 µM
same,GI50,RPMI-8226,2.52 µM
same,CC50,RPMI-8226,> 100 µM
same,GI50,T-47D,2.91 µM
same,CC50,T-47D,86.9 µM
same,GI50,HCC-2998,2.18 µM
same,CC50,HCC-2998,15.9 µM
same,GI50,MOLT-4,2.1 µM
same,CC50,MOLT-4,53.4 µM
same,GI50,SNB-19,4.51 µM
same,CC50,SNB-19,46.1 µM
same,GI50,SF-539,2.26 µM
same,CC50,SF-539,19.4 µM
same,GI50,NCI-H226,3.07 µM
same,CC50,NCI-H226,41.3 µM
same,GI50,A549/ATCC,2.7 µM
same,CC50,A549/ATCC,51.8 µM
same,GI50,SF-295,2.34 µM
same,CC50,SF-295,24.4 µM
same,GI50,HCT-116,2.95 µM
same,CC50,HCT-116,45.6 µM
same,GI50,SK-OV-3,4.53 µM
same,CC50,SK-OV-3,45.3 µM
same,GI50,BT-549,2.23 µM
same,CC50,BT-549,29.5 µM
same,GI50,SF-268,2.29 µM
same,CC50,SF-268,46.3 µM
same,GI50,SNB-75,1.09 µM
same,CC50,SNB-75,35.8 µM
same,CC50,SK-MEL-5,10.1 µM
same,GI50,SK-MEL-5,1.44 µM
same,GI50,HCT-15,2.93 µM
same,CC50,HCT-15,51.9 µM
same,GI50,SN12C,2.49 µM
same,CC50,SN12C,33.3 µM
same,GI50,EKVX,4.57 µM
same,CC50,EKVX,43.1 µM
same,GI50,LOX IMVI,2.82 µM
same,CC50,LOX IMVI,40.9 µM
same,GI50,ACHN,3.39 µM
same,CC50,ACHN,36.4 µM
same,GI50,OVCAR-8,2.37 µM
same,CC50,OVCAR-8,23.7 µM
same,GI50,MDA-MB-231/ATCC,2.85 µM
same,CC50,MDA-MB-231/ATCC,36.8 µM
same,GI50,SK-MEL-2,2.8 µM
same,CC50,SK-MEL-2,32.8 µM
same,GI50,NCI/ADR-RES,1.89 µM
same,CC50,NCI/ADR-RES,10.4 µM
same,GI50,PC-3,3.76 µM
same,CC50,PC-3,> 100 µM
same,GI50,IGROV1,3.91 µM
same,GI50,K-562,1.9 µM
same,CC50,K-562,57.1 µM
same,GI50,OVCAR-3,2.13 µM
same,CC50,OVCAR-3,23.1 µM
same,GI50,HT29,2.59 µM
same,CC50,HT29,27.5 µM
"O=C(N/N=C/c1ccc(C(=O)N2CCOCC2)[nH]1)c1[nH]c2ccc(Br)cc2c1-c1ccccc1 [Derivative 3n, (E)-5-Bromo-N′-((5-(morpholine-4-carbonyl)-1H-pyrrol-2-yl)methylene)-3-phenyl-1H-indole-2-carbohydrazide]",GI50,MCF7,2.46 µM
same,CC50,MCF7,77.8 µM
same,GI50,MDA-MB-468,1.98 µM
same,CC50,MDA-MB-468,75.5 µM
same,GI50,UACC-62,0.864 µM
same,CC50,UACC-62,63.7 µM
same,GI50,RPMI-8226,4.5 µM
same,CC50,RPMI-8226,> 100 µM
same,GI50,T-47D,3.1 µM
same,CC50,T-47D,> 100 µM
same,GI50,HCC-2998,2.31 µM
same,CC50,HCC-2998,42.9 µM
same,GI50,MOLT-4,1.5 µM
same,CC50,MOLT-4,20.8 µM
same,GI50,SNB-19,5.66 µM
same,CC50,SNB-19,> 100 µM
same,GI50,SF-539,2.23 µM
same,CC50,SF-539,34.9 µM
same,GI50,NCI-H226,3.39 µM
same,CC50,NCI-H226,81.7 µM
same,GI50,A549/ATCC,3.88 µM
same,CC50,A549/ATCC,> 100 µM
same,GI50,SF-295,1.63 µM
same,CC50,SF-295,31 µM
same,GI50,HCT-116,2.79 µM
same,CC50,HCT-116,66.7 µM
same,GI50,SK-OV-3,5.68 µM
same,CC50,SK-OV-3,> 100 µM
same,GI50,BT-549,2.36 µM
same,CC50,BT-549,55.2 µM
same,GI50,SF-268,2.51 µM
same,CC50,SF-268,> 100 µM
same,GI50,SNB-75,0.809 µM
same,CC50,SNB-75,88.9 µM
same,CC50,SK-MEL-5,17 µM
same,GI50,SK-MEL-5,1.48 µM
same,GI50,HCT-15,2.62 µM
same,CC50,HCT-15,> 100 µM
same,GI50,SN12C,3.14 µM
same,CC50,SN12C,79.7 µM
same,GI50,EKVX,7.51 µM
same,CC50,EKVX,> 100 µM
same,GI50,LOX IMVI,3.06 µM
same,CC50,LOX IMVI,71.2 µM
same,GI50,ACHN,4.56 µM
same,CC50,ACHN,> 100 µM
same,GI50,OVCAR-8,2.86 µM
same,CC50,OVCAR-8,43.1 µM
same,GI50,MDA-MB-231/ATCC,4.81 µM
same,CC50,MDA-MB-231/ATCC,83.2 µM
same,GI50,SK-MEL-2,2.8 µM
same,CC50,SK-MEL-2,48.3 µM
same,GI50,NCI/ADR-RES,1.92 µM
same,CC50,NCI/ADR-RES,84.1 µM
same,GI50,PC-3,3.44 µM
same,CC50,PC-3,> 100 µM
same,GI50,IGROV1,6.69 µM
same,GI50,K-562,1.27 µM
same,CC50,K-562,42.7 µM
same,GI50,OVCAR-3,2.57 µM
same,CC50,OVCAR-3,47.4 µM
same,GI50,HT29,2.57 µM
same,CC50,HT29,38.3 µM
